Among the test systems are ACHN; COLO 205; DU-145; HCT-15; K562; MCF7; NCI-H226; NCI-H23; NCI-H460; OVCAR-8; RPMI-8226; SF-295; SK-MEL-28; SK-MEL-2; SK-OV-3; SR; SW-620; T47D; UACC-257; UO-31.
Common to all, as to experiment: inhibition of tumour cell growth, NCI panel, 48 h

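Cells were grown in 96-well plates and exposed to each compound for 48 hours at five concentrations; endpoints were interpolated linearly between bracketing concentrations, or set to the highest concentration if not reached. At the GI50, growth is halved.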 Active and inactive are the calls of the source. Rule as the data show it: active = GI50 up to about 1.1 µM and inactive = higher. Starred links: 1 amine or outer side, 2 acyl side, 3 side chain; linkers in the order of their positions; H or OH if unused. Positions of bridges follow the written chain, without caps; N, C: chain ends. Non-standard residues stand in square brackets, D forms with d. Residues, ends and D or L forms follow the SMILES beside them. ξ: configuration not given here. X37 = CC[C@H](C)[C@@H](N[*:1])[C@@H](O)CC(=O)O[C@H](C(=O)[C@H](C)C(=O)[*:2])C(C)C; NMeY = CN[C@@H](Cc1ccc(O)cc1)C(=O)O; dNMeL = CN[C@H](CC(C)C)C(=O)O; ξΔPro = O=C(O)C1C=CCN1

Turning to `COc1ccc(CNc2nc3cc(C(F)(F)F)ccc3nc2C(=O)O)cc1OC`, the GI50 in the test on ACHN is 26.1 µM (inactive); in the test on COLO 205, 22.5 µM (inactive); with DU-145, 41.4 µM (inactive); in the test on HCT-15, 29.4 µM; with K562 it was 24.4 µM (inactive); with MCF7, 23.2 µM (inactive). The GI50 with NCI-H226 is 64.1 µM (inactive); in the test with NCI-H23 it was 33.4 µM (inactive); in the test on NCI-H460 it was 36.6 µM (inactive); in the test on OVCAR-8, 42.6 µM (inactive); with RPMI-8226, 28.1 µM (inactive); in the test on SF-295, 34 µM (inactive). The GI50 was 67 µM (inactive) with SK-MEL-28; 23.2 µM (inactive) with SK-MEL-2; 29.7 µM (inactive) with SK-OV-3; 23.9 µM (inactive) with SR; 43.5 µM (inactive) in the test with SW-620; 37.8 µM (inactive) in the test with T47D. Moreover, the GI50 in the test on UACC-257 was 34.2 µM (inactive); in the test on UO-31, 28.3 µM (inactive).
Take `CC(=O)O[C@H]1CC[C@@]2(C)C(=CC[C@H]3[C@@H]4C[C@H](N5CCN(C)CC5)[C@H](OC(C)=O)[C@@]4(C)CC[C@@H]32)C1`: the GI50 in the test with ACHN was 41.9 µM (inactive); with COLO 205, 17.1 µM (inactive); in the test on DU-145 it was > 100 µM (inactive); in the test with HCT-15, 13 µM; in the test with K562 it was 1.91 µM (inactive); in the test on MCF7, 5.64 µM (inactive). Further, the GI50 with NCI-H226 was 28.9 µM (inactive); in the test on NCI-H23, 22.9 µM (inactive); in the test with NCI-H460, 21.6 µM (inactive); with OVCAR-8 it was 15.6 µM (inactive); in the test with RPMI-8226, 4.39 µM (inactive); with SF-295, 22.1 µM (inactive). Further, the GI50 is 12.5 µM (inactive) with SK-MEL-28; 18 µM (inactive) in the test on SK-MEL-2; > 47.2 µM (inactive) in the test with SK-OV-3; 4.68 µM (inactive) with SR; 15.5 µM (inactive) in the test with SW-620; 17.8 µM (inactive) in the test with T47D. Further, the GI50 was 6.17 µM (inactive) in the test on UACC-257 and > 53 µM (inactive) in the test with UO-31.
On to `COC(C/C(=C/CO[Si](C(C)C)(C(C)C)C(C)C)C(=O)N(C(=O)OC(C)(C)C)c1ccccc1I)OC`, for which the GI50 with ACHN was 45.9 µM (inactive); in the test with COLO 205, 67.5 µM (inactive); in the test with DU-145, > 100 µM (inactive); in the test with HCT-15, 33.4 µM; in the test on K562, > 100 µM (inactive); in the test on MCF7 it was 18.7 µM (inactive). In addition, the GI50 with NCI-H226 was > 100 µM (inactive); with NCI-H23, 39.7 µM (inactive); with NCI-H460, 31.8 µM (inactive); with OVCAR-8 it was > 100 µM (inactive); in the test on RPMI-8226 it was 15.2 µM (inactive); in the test on SF-295, 10.7 µM (inactive). Also, the GI50 was 67.3 µM (inactive) with SK-MEL-28; 17.8 µM (inactive) in the test on SK-MEL-2; > 100 µM (inactive) with SK-OV-3; 34.4 µM (inactive) with SR; 59.3 µM (inactive) in the test on SW-620; 36.8 µM (inactive) in the test on T47D. Further, the GI50 is 38.8 µM (inactive) in the test on UACC-257 and 42.1 µM (inactive) in the test on UO-31.
Take `CC[C@H](C)[C@H]1NC(=O)[C@@H](NC(=O)[C@@H](CC(C)C)N(C)C(=O)C2C=CCN2)[C@@H](C)OC(=O)[C@H](Cc2ccc(OC)cc2)N(C)C(=O)[C@@H]2CCCN2C(=O)[C@H](CC(C)C)NC(=O)[C@@H](C)C(=O)[C@H](C(C)C)OC(=O)C[C@@H]1O` (stereo not given in full) (H-[ξΔPro][dNMeL]T[X37]LP[NMeY](Me); ester 3-C): the GI50 was < 0.005 µM (active) in the test on ACHN; < 0.005 µM (active) in the test on COLO 205; < 0.005 µM (active) in the test on DU-145; 0.0162 µM in the test on HCT-15; < 0.005 µM (active) in the test on K562; < 0.005 µM (active) in the test with MCF7. For the same molecule, the GI50 in the test with NCI-H226, with NCI-H23, with NCI-H460, with OVCAR-8, in the test on RPMI-8226 and with SF-295 was < 0.005 µM (active) in each case. Also, the GI50 in the test with SK-MEL-28, in the test with SK-MEL-2, in the test on SK-OV-3, with SR, in the test on SW-620 and with T47D was < 0.005 µM (active) in each case. The GI50 is < 0.005 µM (active) in the test with UACC-257 and 0.0204 µM (active) in the test with UO-31.
Consider `CC(C)[C@](O)(C(=O)OCC1=CC[N+]2([O-])CC[C@@H](O)[C@@H]12)[C@H](C)O` (stereo not given in full) [INDICINE N-OXIDE], for which the GI50 with ACHN was 4600 µM (inactive); in the test on COLO 205, > 5940 µM (inactive); in the test with DU-145, > 10000 µM (inactive); in the test on HCT-15, greater than 10000 µM; in the test with K562 it was > 10000 µM (inactive); in the test on MCF7, > 10000 µM (inactive). For the same molecule, the GI50 is > 10000 µM (inactive) with NCI-H226; > 6000 µM (inactive) with NCI-H23; 5960 µM (inactive) with NCI-H460; 8110 µM (inactive) in the test with OVCAR-8; > 10000 µM (inactive) in the test on RPMI-8226; > 10000 µM (inactive) in the test with SF-295. Also, the GI50 in the test with SK-MEL-28 is > 10000 µM (inactive); with SK-MEL-2, > 10000 µM (inactive); in the test on SK-OV-3 it was > 10000 µM (inactive); in the test on SR it was 4630 µM (inactive); in the test with SW-620, > 10000 µM (inactive); in the test on T47D, > 10000 µM (inactive). The GI50 in the test on UACC-257 and with UO-31 was > 10000 µM (inactive) each time.

These data come from ChEMBL document CHEMBL1201862, “PubChem BioAssay data set” (2004).
